Measurements as given in patent US20250163057A1, “DCN-1 MODULATING COMPOUNDS AND METHODS OF USE THEREOF” (Cellarity, Inc., priority 2023, published 2025).

What was measured:
[1] = test system: HbF in GlyA+ human erythroid precursor cells; test: Humanized mouse model: F-cells (GlyA+ cells with detectable HbF) by flow cytometry; type: in vivo, NBSGW mice reconstituted with human CD34+ cells; conditions: FIG. 10A, all treatment groups
Method: FIG. 5 is FACS results showing the percentage of GlyA+ cells which also have detectable HbF protein levels in them (called F-cells).
Female, 6-week-old NOD.Cg-Kit^W-41J Tyr^+ Prkdc^scid Il2rg^tm1Wjl/ThomJ (NBSGW) mice (Jackson Laboratory strain #[…]) were used for these studies. The mice were acclimatized to laboratory conditions for 5 days prior to inoculation.
GCSF-mobilized human CD34+ cells were removed from liquid nitrogen storage, thawed in a 37° C. water bath and transferred quickly into a 50 mL conical tube. Cryovial was rinsed once with thaw buffer, 0.1% BSA in phosphate buffered saline (PBS), and buffer was transferred and combined with the original contents in the 50 mL conical tube. Next, doubling volumes of thaw buffer was added to the conical and gently swirled for ˜30 seconds to one minute until the volume in the conical was 32 mL. […] Cells were counted by resuspending in 1 mL of thawing buffer per million of cells to a target concentration range of 0.5 to 2M/ml and counting with AOPI (1:1) on a luna cell counter to confirm the concentration of cells/mL. […]
Compound I-73 was dissolved in a 5% Cremophor RH40, 20% hydroxylpropyl-β-cyclodextrin solution. […] Mice were monitored daily for body weight and condition. […]
After 21 days of dosing, all mice were euthanized and prepared for bone marrow collection. […] Extracted cells were counted and aliquoted to prepare for analysis. […]

[2] = molecular target: DCN2 (DCUND2) protein PONY domain (Homo sapiens (Human), UniProt Q6PH85); test: Measurement of Kinact/KI in the DCN2 TR-FRET Assay; type: binding; conditions: for kinact/KI: read-out: Kinact/KI (converted); for Ki / kinact: time-dependent IC50 over 24 hrs; for kinact: read-out: Kinact (converted)
DCN2 (DCUND2) protein PONY domain, sequence (Q6PH85 60-248): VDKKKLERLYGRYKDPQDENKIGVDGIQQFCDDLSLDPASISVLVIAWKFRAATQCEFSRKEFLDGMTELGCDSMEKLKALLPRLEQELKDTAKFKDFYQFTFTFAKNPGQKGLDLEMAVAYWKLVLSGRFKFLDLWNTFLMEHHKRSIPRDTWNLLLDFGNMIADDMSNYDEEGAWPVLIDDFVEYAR
Method: A TR-FRET Assay was performed to evaluate the ability of the compounds to bind DCN-2.
The time resolved—Forster's resonance energy transfer (TR-FRET) assay was designed following the protocol established in (Scott et al., Nat Chem Biol. 2017 August; 13(8): 850-857). A recombinant form of the DCN2 (DCUND2) protein PONY domain was produced using an E. coli expression system at Viva Biotech China. The DCN2 protein was biotinylated (EZ sulfo-NHS-LC-biotin; Thermofisher) for labeling with 2.5 nM streptavidin terbium (Tb) cryptate in the reaction. The probe was changed to a non-covalent DCN1 inhibitor labeled with carboxyfluorescein (FAM; Zhou et al, Nat Commun. 2017; 8: 1150). Buffer conditions were modified to enhance protein stability by replacing TritonX with 0.05% Tween20 and increasing NaCl to 200 mM. The compounds were screened against 0.31 nM DCN1 and 40 nM FAM-labeled probe in a 40 ul reaction volume. The TR-FRET ratio between Tb-DCN1 and the FAM-labeled probe was measured in a 384-well opti-plate (Perkin Elmer) using a plate reader (BMG) at after treatment with compound (final DMSO concentration of 0.1%). The ratio was normalized to the high (DCN1 and FAM-probe) and low (DCN1 and no probe) controls for a readout of % activity (=100*(x−low)/(high−low)).
The Kinact and KI measurements were taken to allow for continuous reads over 24 hrs. Plates were read every 5 min up to 1 hr, every 15 min up to 5 hr, and every hour up to […]. Kinact and KI were calculated based on the following equations (Krippendorff B F, et al. Mechanism-based inhibition: deriving K(I) and k(inact) directly from time-dependent IC(50) values. J BiomolScreen. 2009; Mons E et al. A Comprehensive Guide for Assessing Covalent Inhibition in Enzymatic Assays Illustrated with Kinetic Simulations. CurrProtoc. 2022) where the KM of the probe against DCN2 is 21.62 nM. The Kinact and KI values could be estimated from the tight curves of the IC50 values over time.

Question: With `CCN1C(=O)[C@@H](NC(=O)c2cccc(C(F)(F)F)c2)[C@@H](c2ccc(F)cc2)c2c([C@@H](C)NC#N)nn(-c3ccccc3)c21` [Compound I-73, N-((4S,5S)-3-((R)-1-cyanamidoethyl)-7-ethyl-4-(4-fluorophenyl)-6-oxo-1-phenyl-4,5,6,7-tetrahydro-1H-pyrazolo[3,4-b]pyridin-5-yl)-3-(trifluoromethyl)benzamide] as the compound, how does the “percentage of HbF expression in GlyA+ cells (F-cell analysis)” value [1] read?
Answer: Its value is “increased percentage of HbF expression in GlyA+ cells”.

Question: And the kinact/KI [2]?
Answer: The kinact/KI was 83300 M⁻¹ s⁻¹.

Question: And the Ki [2]?
Answer: Its Ki is 46.4 nM.

Question: And the kinact [2]?
Answer: Its kinact is 0.00384 s⁻¹.

Question: Which results are given for `CCN1C(=O)[C@@H](NC(=O)c2cccc(C(F)(F)F)c2)[C@@H](C2CC2)c2c(C(=O)N3[C@H](C#N)C[C@H]4C[C@H]43)nn(C3CCOCC3)c21` [Compound I-256, N-((4S,5S)-3-((1R,3S,5R)-3-cyano-2-azabicyclo[3.1.0]hexane-2-carbonyl)-4-cyclopropyl-7-ethyl-6-oxo-1-(tetrahydro-2H-pyran-4-yl)-4,5,6,7-tetrahydro-1H-pyrazolo[3,4-b]pyridin-5-yl)-3-(trifluoromethyl)benzamide]?
Answer: percentage of HbF expression in GlyA+ cells (F-cell analysis) [1]: increased percentage of HbF expression in GlyA+ cells; kinact/KI [2]: 78300 M⁻¹ s⁻¹; Ki [2]: 99.4 nM; kinact [2]: 0.00783 s⁻¹

Question: How did the kinact/KI [2] turn out when `CCN1C(=O)[C@@H](NC(=O)c2cccc(C(F)(F)F)c2)[C@@H](c2ccc(F)cc2)c2c(C(=O)N3CCC[C@H]3C#N)nn(C3CCOCC3)c21` [Compound I-350] was run?
Answer: The kinact/KI was 45000 M⁻¹ s⁻¹.

Question: What about the Ki [2] of the same compound?
Answer: Its Ki is 92.9 nM.

Question: What about the kinact [2] of the same compound?
Answer: Its kinact is 0.00417 s⁻¹.

Question: How did the kinact/KI [2] turn out when `CCN1C(=O)[C@@H](NC(=O)c2cccc(C(F)(F)F)c2)[C@@H](c2ccc(F)cc2)c2c(C(=O)N3CCNC[C@H]3C#N)nn(C3CCOCC3)c21` [Compound I-363, N-((4S,5S)-3-((S)-2-cyanopiperazine-1-carbonyl)-7-ethyl-4-(4-fluorophenyl)-6-oxo-1-(tetrahydro-2H-pyran-4-yl)-4,5,6,7-tetrahydro-1H-pyrazolo[3,4-b]pyridin-5-yl)-3-(trifluoromethyl)benzamide] was run?
Answer: The kinact/KI was 263000 M⁻¹ s⁻¹.

Question: What about the Ki [2] of the same compound?
Answer: The Ki was 17.4 nM.

Question: And the kinact [2]?
Answer: Its kinact is 0.00459 s⁻¹.

Question: With `CCN1C(=O)[C@@H](NC(=O)c2cccc(C(F)(F)F)c2)[C@@H](c2ccc(F)cc2)c2c(C(=O)N(C)[C@@H](C#N)CCN(C)C)nn(C3CCOCC3)c21` [Compound I-369] as the compound, how does the kinact/KI [2] read?
Answer: The kinact/KI was 11700 M⁻¹ s⁻¹.

Question: What about the Ki [2] of the same compound?
Answer: Its Ki is 2 nM.

Question: And the kinact [2]?
Answer: Its kinact is 2.17e-05 s⁻¹.

Question: With `CCN1C(=O)[C@@H](NC(=O)c2cccc(C(F)(F)F)c2)[C@@H](c2ccc(F)cc2)c2c(C(=O)N(C)[C@H](C#N)CCN(C)C)nn(C3CCOCC3)c21` [Compound I-370] as the compound, how does the kinact/KI [2] read?
Answer: The kinact/KI was 107000 M⁻¹ s⁻¹.

Question: What about the Ki [2] of the same compound?
Answer: The Ki was 0.488 nM.

Question: And the kinact [2]?
Answer: The kinact was 5.17e-05 s⁻¹.

Question: With `CCN1C(=O)[C@@H](NC(=O)c2cccc(C(F)(F)F)c2)[C@@H](C2CC2)c2c(C(=O)N3C[C@H](F)C[C@H]3C#N)nn(C3CCOCC3)c21` [Compound I-372] as the compound, how does the kinact/KI [2] read?
Answer: The kinact/KI was 13300 M⁻¹ s⁻¹.

Question: And the Ki [2]?
Answer: The Ki was 229 nM.

Question: And the kinact [2]?
Answer: The kinact was 0.00313 s⁻¹.

Question: With `CCN1C(=O)[C@@H](NC(=O)c2cccc(C(F)(F)F)c2)[C@@H](C2CC2)c2c(C(=O)N3C[C@H](OC)C[C@H]3C#N)nn(C3CCOCC3)c21` [Compound I-377] as the compound, how does the kinact/KI [2] read?
Answer: The kinact/KI was 21700 M⁻¹ s⁻¹.

Question: And the Ki [2]?
Answer: Its Ki is 161 nM.

Question: And the kinact [2]?
Answer: The kinact was 0.00354 s⁻¹.

Question: What does the source list for `CCN1C(=O)[C@@H](NC(=O)c2cccc(C(F)(F)F)c2)[C@@H](C2CC2)c2c(C(=O)N3CCNC[C@H]3C#N)nn(-c3ccccc3)c21` [Compound I-383]?
Answer: kinact/KI [2]: 48300 M⁻¹ s⁻¹; Ki [2]: 95.8 nM; kinact [2]: 0.00465 s⁻¹

Question: For `CCN1C(=O)[C@@H](NC(=O)c2cccc(C(F)(F)F)c2)[C@@H](C)c2c(C(=O)N3[C@H](C#N)C[C@H]4C[C@H]43)nn(C3CCOCC3)c21` [Compound I-387], which kinact/KI [2] is on record?
Answer: The kinact/KI was 46700 M⁻¹ s⁻¹.

Question: And the Ki [2]?
Answer: The Ki was 157 nM.

Question: And the kinact [2]?
Answer: Its kinact is 0.00727 s⁻¹.

Question: How did the kinact/KI [2] turn out when `CCc1cccc(C(=O)N[C@@H]2C(=O)N(CC)c3c(c(C(=O)N4[C@H](C#N)C[C@H]5C[C@H]54)nn3C3CCOCC3)[C@@H]2C2CC2)c1` [Compound I-552, N-((4S,5S)-3-((1R,3S,5R)-3-cyano-2-azabicyclo[3.1.0]hexane-2-carbonyl)-4-cyclopropyl-7-ethyl-6-oxo-1-(tetrahydro-2H-pyran-4-yl)-4,5,6,7-tetrahydro-1H-pyrazolo[3,4-b]pyridin-5-yl)-3-ethylbenzamide] was run?
Answer: The kinact/KI was 333000 M⁻¹ s⁻¹.

Question: And the Ki [2]?
Answer: Its Ki is 17 nM.

Question: What about the kinact [2] of the same compound?
Answer: The kinact was 0.00566 s⁻¹.
